The structures appear in SMILES notation. Like-named read-outs stand apart in the source and are kept apart here.

The target in test [1] is T1, SERT (Homo sapiens, UniProt P31645). As to the kind of experiment: Electrophysiological measurement of methylphenidate binding kinetics to SERT (peak current inhibition and recovery). In kind it is cell-based. Details: expressed in transfected cells. The settings on record: for koff: peak current recovery after washout, read-out: dissociation rate koff from SERT; for association rate constant kon for binding to SERT / kon: y-intercept constrained to koff; for kon: read-out: association rate constant kon for binding to SERT. Here is the method: Accordingly, we explored the hypothesis that restricting the flexibility of extracellular loops may increase the affinity of methylphenidate. […] We therefore resorted to an electrophysiological approach, which relies on the substrate-induced peak current through SERT for determining the occupancy of the binding site by methylphenidate. […] The recordings were done in the presence of high internal Na^+ (152 mM) because a high internal Na^+ concentration eliminates the steady-state current component ([5]). The isolated peak current can be quantified with high precision ([5]). The association rate of methylphenidate in the absence (Fig. 9A) and presence (Fig. 9B) of 15B8 Fab was measured by applying 5-HT (30 μM) for 3 s to obtain the reference current. Cells were subsequently exposed to methylphenidate for time intervals varying between 0.2, 0.5, 1, 2, 5, and 10 s prior to eliciting a current by fresh superfusion with 5-HT. This allowed for monitoring the onset of the methylphenidate-induced inhibition of the peak current.
T1 sequence (P31645 whole entry): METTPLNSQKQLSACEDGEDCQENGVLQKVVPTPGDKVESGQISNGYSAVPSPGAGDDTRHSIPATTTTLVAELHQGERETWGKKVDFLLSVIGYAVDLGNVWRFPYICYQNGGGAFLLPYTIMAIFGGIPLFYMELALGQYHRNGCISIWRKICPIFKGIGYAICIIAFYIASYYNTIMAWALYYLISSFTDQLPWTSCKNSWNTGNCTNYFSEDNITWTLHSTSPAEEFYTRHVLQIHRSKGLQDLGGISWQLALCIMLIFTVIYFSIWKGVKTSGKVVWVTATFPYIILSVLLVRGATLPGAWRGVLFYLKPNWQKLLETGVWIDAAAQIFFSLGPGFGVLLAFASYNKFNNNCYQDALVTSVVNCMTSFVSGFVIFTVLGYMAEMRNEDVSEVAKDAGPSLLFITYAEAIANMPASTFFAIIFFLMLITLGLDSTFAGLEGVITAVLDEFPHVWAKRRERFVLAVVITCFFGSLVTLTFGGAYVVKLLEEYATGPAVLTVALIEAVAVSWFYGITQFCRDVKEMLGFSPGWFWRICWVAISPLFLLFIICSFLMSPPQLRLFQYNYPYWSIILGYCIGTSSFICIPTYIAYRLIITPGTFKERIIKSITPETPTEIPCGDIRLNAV
Peak currents were isolated (i.e., the steady-state current was suppressed) by a high concentration of Na^+ (152 mM) in the internal solution in the patch pipet. Shown is the compilation of representative peak current traces from a single cell. […] The dashed lines were drawn by fitting the decline in peak current amplitude to an equation for a monoexponential decay to a residual activity. C and D, the experiments were carried out as outlined in panels A and B with 10, 30, 100, and 300 μM methylphenidate (MPH) in the absence (C) and presence of 300 nM 15B8 Fab 8 (D). The peak current reduction was normalized by dividing test currents by the reference current and plotted as a function of time. Data are means ± SD from three to seven independent recordings for each concentration of methylphenidate. […] Then, the peak currents were elicited by rapid application of 30 μM 5-HT with 0, 0.2, 0.5, 1, 2, 5, and 10 s delay to observe its recovery.

Test [2] deals with T1, SERT. As to the kind of experiment: [^3H]imipramine binding to membranes harboring GFP-tagged SERT. Details: expressed in transfected cells; membrane preparation. To be noted: in the presence of 8B6 scFv, 15B8 Fab, or antiSERT-EL4 antibody; data not shown.

By koff is commonly meant the first-order rate constant of dissociation. The kon is the second-order rate constant of association. Take `COC(=O)C(c1ccccc1)C1CCCCN1` (stereo not drawn) [methylphenidate]: the apparent on-rate kapp is 0.36 ± 0.12 s⁻¹ at SERT [1] (10 μM methylphenidate, absence of 15B8 Fab); 1.20 ± 0.42 s⁻¹ on SERT [1] (10 μM methylphenidate, presence of 300 nM 15B8 Fab); 0.87 ± 0.20 s⁻¹ on SERT [1] (30 μM methylphenidate, absence of 15B8 Fab); 1.29 ± 0.27 s⁻¹ at SERT [1] (30 μM methylphenidate, presence of 300 nM 15B8 Fab); 1.53 ± 0.40 s⁻¹ at SERT [1] (100 μM methylphenidate, absence of 15B8 Fab); 2.72 ± 0.45 s⁻¹ at SERT [1] (100 μM methylphenidate, presence of 300 nM 15B8 Fab). Also, the apparent on-rate kapp at SERT [1] (300 μM methylphenidate, absence of 15B8 Fab) turned out to be 3.46 ± 0.51 s⁻¹; on SERT [1] (300 μM methylphenidate, presence of 300 nM 15B8 Fab), 6.54 ± 1.04 s⁻¹. For the same molecule, the koff on SERT [1] (absence of 15B8 Fab) turned out to be 0.89 ± 0.14 s⁻¹; on SERT [1] (presence of 15B8 Fab (300 nM)) it was 0.8 ± 0.12 s⁻¹. For the same molecule, the results for the “association rate constant kon for binding to SERT” value on SERT [1] (absence of 15B8 Fab) and at SERT [1] (presence of 15B8 Fab (300 nM)) were 8.55 ± 1.03 × 10^3 M^−1 s^−1 and 1.92 ± 0.06 × 10^4 M^−1 s^−1, respectively. Further, the figures for the on-rate (kon) at SERT [1] (absence of 15B8 Fab) and on SERT [1] (presence of 15B8 Fab (300 nM)) were 8950 ± 1.03e+06 M⁻¹ s⁻¹ and 19600 ± 6e+06 M⁻¹ s⁻¹, respectively. The “competition curve versus [^3H]imipramine” value on SERT [2] is “shift to the left”.

Values taken from PMC8253976, “Extracellular loops of the serotonin transporter act as a selectivity filter for drug binding” (The Journal of Biological Chemistry, 2021).
